Consider 14 molecules from PubChem BioAssay (NCI).

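All cell lines were grown in 96-well plates and treated with compound for 48 hours. GI50 is the concentration that inhibits growth by half. TGI is the concentration that stops growth completely.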 Bounds are passed on as bounds.

Holding throughout (assay): NCI tumour cell line growth inhibition, 48 h
The test system of assay [1] is UACC-257 melanoma.
In assay [2] the test system is SNB-75 CNS.
Assay [3] has as its system KM12 colon.
Assay [4] concerns RPMI-8226 leukemia.
The test system of assay [5] is SF-539 CNS.
The test system of assay [6] is U251 CNS.
In assay [7] the test system is COLO 205 colon.
Assay [8] relates to IGROV1 ovarian.
Assay [9] relates to RXF 393 renal.

Take `C=CC1(C(=O)O)CCC(C(C)(C)C)CC1` (centres undefined): the TGI in assay [1], in [2], in [3], in assay [4], in [5] and in assay [6] was more than 100 µM each time. Moreover, the TGI in assay [7], in [8] and in [9] was more than 100 µM in each case.
As for `O=C1c2ccccc2-c2cccc3ccc(Cc4ccc5ccccc5c4)c1c23`, the TGI in assay [1], in assay [2], in [3], in assay [4], in assay [5] and in [6] was more than 100 µM throughout. Further, the TGI in assay [7], in assay [8] and in assay [9] was more than 100 µM in each case.
In the case of `CC[C@@H]1OC2(C)CC(S(=O)(=O)c3ccccc3O)CC1O2` (some centres undefined), the TGI in [1], in assay [2], in assay [3], in assay [4], in assay [5] and in assay [6] was more than 100 µM throughout. In addition, the TGI in assay [7], in assay [8] and in [9] was more than 100 µM in each case.
As for `CCOC(=O)C(N)C[S][Sn]([CH3])([CH3])[Cl]` (centres undefined), the GI50 in assay [1] was more than 100 µM; in assay [2] it was 52.5 µM; in assay [3], more than 100000 nM; in assay [4] it was more than 84.9 µM; in assay [5], more than 100000 nM; in assay [6], more than 100 µM. The GI50 in assay [7] was more than 100 µM; in assay [8] it was more than 100000 nM; in assay [9], more than 100 µM. Moreover, the TGI in [1], in assay [2], in [3], in assay [4], in [5] and in [6] was more than 100 µM throughout. For the same molecule, the TGI in assay [7], in [8] and in assay [9] was more than 100 µM in each case.
As for `CC(=O)c1cccc(N2COC(C)(C)c3nc4ccccc4n3C2)c1`, the TGI in assay [1], in assay [2], in [3], in [4], in [5] and in [6] was more than 100 µM each time. Moreover, the TGI in [7], in assay [8] and in assay [9] was more than 100 µM in each case.
For `CC1C[C@@]2(c3ccccc3)C(=O)CCC[C@H]2N1` (some centres undefined), the TGI in assay [1], in assay [2], in assay [3], in [5], in assay [6] and in assay [8] was more than 100 µM in each case. Besides, the TGI in assay [9] was more than 100 µM.
On to `COc1ccc(-c2onc(-c3ccc([N+](=O)[O-])cc3)c2C2=NCCN2)cc1`, for which the TGI was 52.1 µM in assay [1]; 44 µM in assay [2]; more than 100 µM in assay [3]; more than 100 µM in assay [4]; more than 100 µM in assay [5]; more than 100 µM in assay [6]. For the same molecule, the TGI in [7], in [8] and in assay [9] was more than 100 µM in each case.
Regarding `CC/C(C)=C1\CCC(CN2CCOCC2)C1=O` (centres undefined), the TGI in [1] is 31.5 µM; in assay [2] it was 40.6 µM; in [3], more than 100 µM; in assay [4], 15.9 µM; in assay [5] it was 35 µM; in [8] it was 38.1 µM. The same molecule displayed a TGI in assay [9] of 22 µM.
For `COc1ccccc1N1C(=O)/C(=C/c2ccc(N(CCC#N)CCC#N)cc2C)N=C1c1cc([N+](=O)[O-])ccc1Cl`, the TGI in assay [1], in assay [2], in assay [3], in assay [4], in [5] and in assay [6] was more than 100 µM throughout. In addition, the TGI in [7] and in assay [8] was more than 100 µM in each case.
Regarding `O=[N+]([O-])c1cccc(C2N3CCCCC3[C@@H]3c4[nH]c5ccccc5c4CCN23)c1` (some centres undefined), the TGI in assay [1] is 27 µM; in [4], more than 100 µM; in assay [5] it was 29.7 µM; in [6], 28.4 µM; in assay [7], 32.8 µM; in assay [8], 39.2 µM. Further, the TGI in [9] was 18.8 µM.
Consider `COc1cc(Cl)c2c3c(c(C(C)=O)oc13)CCC2`, for which the TGI in assay [1], in assay [2], in assay [4], in [5], in assay [6] and in [7] was more than 100 µM in each case. The TGI in assay [8] and in assay [9] was more than 100 µM each time.
Regarding `CC(=O)OCC1OC(N2C(=O)C(=O)c3cc(C)ccc32)C(OC(C)=O)C(OC(C)=O)C1OC(C)=O` (centres undefined), the TGI in assay [1] was more than 100 µM; in assay [2], more than 100 µM; in [3], more than 100 µM; in assay [4] it was 70.1 µM; in [5], more than 100 µM; in assay [6], more than 100 µM. In addition, the TGI is more than 100 µM in assay [7], more than 100 µM in assay [8] and 90.7 µM in assay [9].
For the molecule `CC1=C(C(=O)Nc2ccccc2C)C(c2ccc(Cl)c(Cl)c2)C(C(=O)Nc2ccccc2C)=C(C)N1`, the TGI in assay [1] was 50.7 µM; in [2], more than 100 µM; in assay [3] it was 87.4 µM; in assay [4], 53.7 µM; in [5], 49.6 µM; in assay [6] it was 40.5 µM. Moreover, the TGI in [7] came out at 30 µM; in assay [8], 93.1 µM; in assay [9], 41.6 µM.
Consider `Nc1c(C(=O)c2ccc(Cl)cc2)sc(Nc2ccccc2)c1-c1nc2ccccc2s1`, for which the GI50 in [1] was more than 100 µM; in [2], 1.89 µM; in assay [3], 812 nM; in assay [4], 6.05 µM; in [5], 2630 nM; in assay [6] it was 3.06 µM. Besides, the GI50 in assay [8] was 1420 nM; in assay [9], 10.5 µM. Also, the TGI was more than 100 µM in assay [1]; 9.5 µM in assay [2]; more than 100 µM in assay [3]; more than 100 µM in [4]; more than 100 µM in assay [5]; 36.3 µM in assay [6]. The results for the TGI in [8] and in assay [9] were more than 100 µM and 33.1 µM, respectively.
